Target: E3 ubiquitin-protein ligase Mdm2 (Homo sapiens) (UniProt Q00987)
Assay: compounds raising luminescence in WT MDM2 cells – cell-based, wild-type MDM2, luciferase luminescence, dose response (AID 1444)
Settings: MDM2 wild-type luciferase reporter cells, 2 h

Sequence of E3 ubiquitin-protein ligase Mdm2 (Homo sapiens) (Q00987 whole entry, looked up): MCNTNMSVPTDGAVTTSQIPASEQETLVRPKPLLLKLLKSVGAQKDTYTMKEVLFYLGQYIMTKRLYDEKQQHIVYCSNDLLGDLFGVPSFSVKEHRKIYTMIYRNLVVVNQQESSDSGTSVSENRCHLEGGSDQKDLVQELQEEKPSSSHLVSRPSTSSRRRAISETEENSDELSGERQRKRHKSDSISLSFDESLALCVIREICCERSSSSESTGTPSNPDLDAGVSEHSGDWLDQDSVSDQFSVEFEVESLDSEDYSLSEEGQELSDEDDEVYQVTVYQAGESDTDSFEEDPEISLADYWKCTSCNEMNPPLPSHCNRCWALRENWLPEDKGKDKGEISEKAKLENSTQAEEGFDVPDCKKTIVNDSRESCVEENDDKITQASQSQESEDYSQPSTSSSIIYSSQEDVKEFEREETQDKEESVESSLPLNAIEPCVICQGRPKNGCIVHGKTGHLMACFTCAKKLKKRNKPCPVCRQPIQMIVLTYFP

CC1=NN(c2cccc(C(=O)O)c2)C(=O)/C1=C\C=C/c1ccccc1
EC50: 720 nM

Source: PubChem BioAssay AID1444 (PCMD, 2008)
